Where a chain is given by its changes, count along the chain named.
What was measured:
[1] = target: T1, human α1aAR SNP V311I (Homo sapiens, UniProt P35348, V311I); experiment: Competition binding vs [125I]HEAT, SNP V311I; conditions: high expressing clone
T1 construct: expressed in transfected cells
T1 sequence (P35348 1-466 V311I): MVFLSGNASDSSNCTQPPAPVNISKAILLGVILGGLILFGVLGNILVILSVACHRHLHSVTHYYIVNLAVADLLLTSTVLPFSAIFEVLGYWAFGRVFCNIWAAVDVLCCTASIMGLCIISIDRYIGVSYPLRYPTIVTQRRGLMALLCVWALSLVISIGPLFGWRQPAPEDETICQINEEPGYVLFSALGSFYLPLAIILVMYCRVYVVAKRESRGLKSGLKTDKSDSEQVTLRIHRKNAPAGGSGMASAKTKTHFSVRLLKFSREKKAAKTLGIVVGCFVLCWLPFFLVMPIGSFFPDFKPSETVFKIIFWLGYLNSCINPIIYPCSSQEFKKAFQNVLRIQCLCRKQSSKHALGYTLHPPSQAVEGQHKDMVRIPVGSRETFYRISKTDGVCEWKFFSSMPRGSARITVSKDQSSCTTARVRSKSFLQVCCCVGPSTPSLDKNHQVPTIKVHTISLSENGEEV

[2] = target: T2, human α1aAR SNP G247R (Homo sapiens, UniProt P35348, G247R); experiment: NE-stimulated inositol phosphate (IP) production, SNP G247R; assay type: cell-based; conditions: low-expression stable clones
T2 construct: expressed in transfected cells
T2 sequence (P35348 1-466 G247R): T1 sequence (P35348 1-466 V311I) with G247R, I311V

[3] = target: T1, human α1aAR SNP V311I; experiment: NE-stimulated inositol phosphate (IP) production, SNP V311I; assay type: cell-based
[4] = target: T3, human α1aAR SNP I200S (Homo sapiens, UniProt P35348, I200S); experiment: Competition binding vs [125I]HEAT, SNP I200S; conditions: high expressing clone
T3 construct: expressed in transfected cells; host or cells: rat-1 fibroblasts (membranes)
T3 sequence (P35348 1-466 I200S): T1 sequence (P35348 1-466 V311I) with I200S, I311V

COc1ccccc1N1CCN(CCCNc2c(C)c(=O)n(C)c(=O)n2C)CC1 [5-methylurapidil]
higher affinity vs WT [1]: 3 fold

NC[C@H](O)c1ccc(O)c(O)c1 [NE, (−)-norepinephrine]
maximum IP production (maximum activity) vs WT [2]: significantly higher maximum activity
Ki increase vs WT (decrease in receptor affinity) [1]: ~3 fold
decrease in potency of NE-stimulated IP formation compared with WT ([3]; high-expression stable clone): 2.4 fold
EC50 for NE vs WT ([3]; low-expression stable clone): significantly increased EC50
EC50 for NE vs WT ([3]; transiently transfected rat-1 fibroblasts): significantly increased EC50

Cc1ccc(N(CC2=NCCN2)c2cccc(O)c2)cc1 [phentolamine]
Ki increase vs WT (decreased binding affinity) [4]: ~3 fold

CNC[C@H](O)c1cccc(O)c1 [phenylephrine]
Ki increase vs WT (decrease in receptor affinity) [1]: ~3 fold
